Patent US8119681B2, “2-[1-phenyl-5-hydroxy or methoxy-4alpha-methyl-hexahydrocyclopenta [ƒ]indazole-5-YL]ethyl phenyl derivatives as glucocorticoid receptor ligands” (Merck Sharp & Dohme Corp., priority 2006, dated 2012)
Where two headings read alike, the source gives them in different places.

Target: T1, human GR (Homo sapiens, UniProt P04150)
T1 sequence (P04150 1-777): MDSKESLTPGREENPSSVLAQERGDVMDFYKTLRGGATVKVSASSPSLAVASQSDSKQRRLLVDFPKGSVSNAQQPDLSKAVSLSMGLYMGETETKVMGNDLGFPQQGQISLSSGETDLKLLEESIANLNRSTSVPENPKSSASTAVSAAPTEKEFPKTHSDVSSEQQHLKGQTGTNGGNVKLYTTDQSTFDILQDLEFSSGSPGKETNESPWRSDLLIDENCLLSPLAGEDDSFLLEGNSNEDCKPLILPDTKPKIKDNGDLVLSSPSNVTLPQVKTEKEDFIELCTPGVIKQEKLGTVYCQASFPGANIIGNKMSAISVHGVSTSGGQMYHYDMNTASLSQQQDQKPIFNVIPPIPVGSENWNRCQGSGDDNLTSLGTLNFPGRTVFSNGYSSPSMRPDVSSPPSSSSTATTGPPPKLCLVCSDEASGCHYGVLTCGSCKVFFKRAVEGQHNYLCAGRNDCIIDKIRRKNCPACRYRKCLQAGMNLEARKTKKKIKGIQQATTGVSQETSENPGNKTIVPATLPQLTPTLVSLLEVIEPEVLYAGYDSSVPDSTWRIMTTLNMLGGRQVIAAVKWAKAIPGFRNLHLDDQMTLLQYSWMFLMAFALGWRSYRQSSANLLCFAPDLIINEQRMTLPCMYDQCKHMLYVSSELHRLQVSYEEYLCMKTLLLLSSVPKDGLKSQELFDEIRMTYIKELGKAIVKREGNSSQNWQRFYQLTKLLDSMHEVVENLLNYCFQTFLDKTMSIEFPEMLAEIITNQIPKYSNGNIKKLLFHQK
Assay: Trans-Activation Modulation of Glucocorticoid Receptor (GRAMMER), MMTV-LUC reporter gene
Type: cell-based
Design: endogenous in cells
Settings: for Emax: A549; for EC50: A549 cells, IP = inflection point
From the text: Trans-Activation Modulation of Glucocorticoid Receptor (GRAMMER)
This assay assesses the ability of test compounds to control transcription from the MMTV-LUC reporter gene in lung adenocarcinoma A549 cells or HeLa cells, a human […] cell line that naturally expresses the human GR. The assay measures induction of a modified MMTV LTR/promoter linked to the LUC reporter gene.
The routine transient assay consists of plating 7,000-25,000 cells/well of a white, clear-bottom 96-well plate. Alternatively, 384-well plates can be used at a cell concentration of 10,000/well. The media that the cells are plated in is “exponential growth medium” which consists of phenol red-free RPMI1640 containing 10% FBS, 4 mM L-glutamine, 20 mM HEPES, 10 ug/mL human insulin, and 20 ug/mL gentamicin. Incubator conditions are 37° C. and 5% CO2. The transfection is done in batch mode. The cells are trypsinized and counted to the right cell number in the proper amount of fresh media. It is then gently mixed with the FuGene6/DNA mix and plated onto the 96 or 384-well plate, all the wells receive 100 uL or 40 uL, respectively, of medium+lipid/DNA complex then incubated 37° C. overnight. The transfection cocktail consists of serum-free OptiMEM, FuGene6 reagent and DNA. The manufacturer's (Roche Biochemical) protocol for cocktail setup is as follows: The lipid to DNA ratio is approximately 2.5:1 and the incubation time is 20 min at room temperature. Sixteen to 24 hours after transfection, the cells are treated with dexamethasone to a final concentration of 10 nM as well as the compound of interest, such that final DMSO (vehicle) concentration is equal to or less than 1%. Each plate also contains samples that are treated with 10 nM dexamethasone alone, which is used as the 100% activity control. The cells are exposed to the compounds for 24 hours. After 24 hours, the cells are lysed by a Promega cell culture lysis buffer for approximately 30 min and then the luciferase activity in the extracts is assayed in the 96-well format luminometer. In 384-well format, Steady-Glo (Promega) or Steady-Lite (PerkinElmer) can be used by adding an equal volume of reagent to the media present in each well. Activity induced by 10 nM dexamethasone alone is set at 100% activity. Antagonist activity is calculated by determining the decrease in dexamethasone-induced activity in response to compound treatment relative to samples that were treated with dexamethasone alone. […] This transactivation assay can be performed in an agonist and antagonist mode to identify these different activities. […]

[1] = read-out: Transactivation A549 Cells GRAMMER Emax (%)
[2] = Table 1, read-out: Transactivation A549 Cells GRAMMER IP
[3] = read-out: Transactiviation A549 Cells GRAMMER Emax (%)
[4] = Table 2, read-out: Transactiviation A549 Cells GRAMMER IP

Compound | Emax [1] [%] | EC50 [2] [nM] | Emax [3] [%] | EC50 [4] [nM]
CCNC(=O)c1ccccc1CC[C@]1(O)CCC2=Cc3c(cnn3-c3ccc(F)c(F)c3)C[C@@]21C [Example 51, 2-{2-[(4αS,5R)-1-(3,4-difluorophenyl)-5-hydroxy-4α-methyl-1,4,4α,5,6,7-hexahydrocyclopenta[f]indazol-5-yl]ethyl}-N-ethylbenzamide] | 30 | 164 |  | 
Cc1ccc(C(N)=O)c(CC[C@]2(O)CCC3=Cc4c(cnn4-c4ccc(F)cc4)C[C@@]32C)c1 [Example 174, 2-{2-[(4αS,5R)-1-(4-fluorophenyl)-5-hydroxy-4α-methyl-1,4,4α,5,6,7-hexahydrocyclopenta[f]indazol-5-yl]ethyl}-4-methylbenzamide] | 36 | 147 |  | 
CCCNC(=O)c1c(F)cccc1CC[C@]1(O)CCC2=Cc3c(cnn3-c3ccc(F)cc3)C[C@@]21C [Example 49, 2-fluoro-6-{2-[(4αS,5R)-1-(4-fluorophenyl)-5-hydroxy-4α-methyl-1,4,4α,5,6,7-hexahydrocyclopenta[f]indazol-5-yl]ethyl}-N-propylbenzamide] | 25 | 26 |  | 
CC1(NC(=O)c2ccccc2CC[C@]2(O)CCC3=Cc4c(cnn4-c4ccccc4)C[C@@]32C)CC1 [Example 34, 2-{2-[(4αS,5R)-5-hydroxy-4α-methyl-1-phenyl-1,4,4α,5,6,7-hexahydrocyclopenta[f]indazol-5-yl]ethyl}-N-(1-methylcyclopropyl)benzamide] | 13 | 128 |  | 
C[C@H](CNC(=O)c1ccccc1CC[C@]1(O)CCC2=Cc3c(cnn3-c3ccc(F)cc3)C[C@@]21C)C(F)(F)F [Example 45, 2-{2-[(4αS,5R)-1-(4-fluorophenyl)-5-hydroxy-4α-methyl-1,4,4α,5,6,7-hexahydrocyclopenta[f]indazol-5-yl]ethyl}-N-[(2R)-3,3,3-trifluoro-2-methylpropyl]benzamide] | 18 | 183 |  | 
CC(C)CNC(=O)c1c(F)cccc1CC[C@]1(O)CCC2=Cc3c(cnn3-c3ccc(F)cc3)C[C@@]21C [Example 61, 2-fluoro-6-{2-[(4αS,5R)-1-(4-fluorophenyl)-5-hydroxy-4α-methyl-1,4,4α,5,6,7-hexahydrocyclopenta[f]indazol-5-yl]ethyl}-N-isobutylbenzamide] | 35 | 86 |  | 
C[C@]12Cc3cnn(-c4ccc(F)cc4)c3C=C1CC[C@@]2(O)CCc1cccc(F)c1CO [Example 148, (4αS,5R)-5-{2-[3-fluoro-2-(hydroxymethyl)phenyl]ethyl}-1-(4-fluorophenyl)-4α-methyl-1,4,4α,5,6,7-hexahydrocyclopenta[f]indazol-5-ol] | 57 | 43 |  | 
C[C@]12Cc3cnn(-c4ccc(F)cc4)c3C=C1CC[C@@]2(O)CCc1ccccc1C1(NS(=O)(=O)C2CC2)CC1 [Example 91, N-[1-(2-{2-[(4αS,5R)-1-(4-fluorophenyl)-5-hydroxy-4α-methyl-1,4,4α,5,6,7-hexahydrocyclopenta[f]indazol-5-yl]ethyl}phenyl)cyclopropyl]cyclopropanesulfonamide] | 46 | 121 |  | 
C=CCNC(=O)c1c(F)cccc1CC[C@]1(O)CCC2=Cc3c(cnn3-c3ccc(F)cc3)C[C@@]21C [Example 57, N-allyl-2-fluoro-6-{2-[(4αS,5R)-1-(4-fluorophenyl)-5-hydroxy-4α-methyl-1,4,4α,5,6,7-hexahydrocyclopenta[f]indazol-5-yl]ethyl}benzamide] | 37 | 24 |  | 
CC(C)(C)NC(=O)c1ccccc1CC[C@]1(O)CCC2=Cc3c(cnn3-c3ccc(F)cc3)C[C@@]21C [Example 62, N-(tert-butyl)-2-{2-[(4αS,5R)-1-(4-fluorophenyl)-5-hydroxy-4α-methyl-1,4,4α,5,6,7-hexahydrocyclopenta[f]indazol-5-yl]ethyl}benzamide] | 23 | 212 |  | 

Further lines, results first:

Emax [1] [%] | EC50 [2] [nM] | Emax [3] [%] | EC50 [4] [nM] | Compound
57 | 65 |  |  | C[C@]12Cc3cnn(-c4ccc(F)cc4)c3C=C1CC[C@@]2(O)CCc1ccccc1C(=O)NCC1CC1 [Example 37, N-(cyclopropylmethyl)-2-{2-[(4αS,5R)-1-(4-fluorophenyl)-5-hydroxy-4α-methyl-1,4,4α,5,6,7-hexahydrocyclopenta[r]indazol-5-yl]ethyl}benzamide]
38 | 264 |  |  | CC(O)(C(N)=O)c1ccccc1CC[C@]1(O)CCC2=Cc3c(cnn3-c3ccc(F)cc3)C[C@@]21C (single isomer, unassigned) [Example 150]
29 | 81 |  |  | CCCNC(=O)c1ccccc1CC[C@]1(O)CCC2=Cc3c(cnn3-c3ccc(F)cc3)C[C@@]21C [Example 30, 2-{2-[(4αS,5R)-1-(4-fluorophenyl)-5-hydroxy-4α-methyl-1,4,4α,5,6,7-hexahydrocyclopenta[f]indazol-5-yl]ethyl}-N-propylbenzamide]
46 | 249 |  |  | C[C@]12Cc3cnn(-c4ccc(F)cc4)c3C=C1CC[C@@]2(O)CCc1cccc(Cl)c1CC(N)=O [Example 197, 2-(2-chloro-6-{2-[(4αS,5R)-1-(4-fluorophenyl)-5-hydroxy-4α-methyl-1,4,4α,5,6,7-hexahydrocyclopenta[f]indazol-5-yl]ethyl}phenyl)acetamide]
 |  | 98 | 162 | C[C@]12Cc3cnn(-c4ccc(F)cc4)c3C=C1CC[C@@]2(O)CCc1ccccc1Cl [Example 40 WO 2004/075840 A2, reference compound]
 |  | 144 | 215 | C[C@]12Cc3cnn(-c4ccc(F)cc4)c3C=C1CC[C@@]2(O)CCc1ccccc1F [Example 70 WO 2004/075840 A2, reference compound]
37 | 62 |  |  | C=CCNC(=O)c1ccccc1CC[C@]1(O)CCC2=Cc3c(cnn3-c3ccc(F)cc3)C[C@@]21C [Example 33, N-allyl-2-{2-[(4αS,5R)-1-(4-fluorophenyl)-5-hydroxy-4α-methyl-1,4,4α,5,6,7-hexahydrocyclopenta[f]indazol-5-yl]ethyl}benzamide]
45 | 240 |  |  | CC(=O)Cc1ccccc1CC[C@]1(O)CCC2=Cc3c(cnn3-c3ccc(F)cc3)C[C@@]21C [Example 157, 1-(2-{2-[(4αS,5R)-1-(4-fluorophenyl)-5-hydroxy-4α-methyl-1,4,4α,5,6,7-hexahydrocyclopenta[f]indazol-5-yl]ethyl}phenyl)acetone]
55 | 175 |  |  | CC(=O)Nc1ccccc1CC[C@]1(O)CCC2=Cc3c(cnn3-c3ccc(F)cc3)C[C@@]21C [Example 14, N-(2-{2-[(4αS,5R)-1-(4-fluorophenyl)-5-hydroxy-4α-methyl-1,4,4α,5,6,7-hexahydrocyclopenta[f]indazol-5-yl]ethyl}phenyl)acetamide]
 |  | 73 | 230 | C[C@]12Cc3cnn(-c4ccc(F)cc4)c3C=C1CC[C@@]2(O)CCc1ccccc1 [Example 2 WO 2004/075840 A2, reference compound]
37 | 261 |  |  | C[C@]12Cc3cnn(-c4ccc(F)cc4)c3C=C1CC[C@@]2(O)CCc1ccccc1CC(N)=O [Example 107, 2-(2-{2-[(4αS,5R)-1-(4-fluorophenyl)-5-hydroxy-4α-methyl-1,4,4α,5,6,7-hexahydrocyclopenta[f]indazol-5-yl]ethyl}phenyl)acetamide]
